According to US20210154173A1, “PHARMACEUTICAL COMPOSITION INCLUDING CLAVULANIC ACID AND VALPROIC ACID, METHOD FOR TREATMENT OF EPILEPSY SEIZURE, AND METHOD FOR TREATMENT OF EPILEPSY-ASSOCIATED MOTOR SYMPTOM AND COGNITIVE IMPAIRMENT” (Arthur Wisdom Technology Consultants Ltd., priority 2019, published 2021):

How the values were obtained:
Format in all cases: in vivo, Wistar male rats
[1] = system: epilepsy rats (PTZ induced); assay: BrdU staining of hippocampal dentate gyrus (trial F); conditions: 23rd day
Protocol: (§1) Wistar male rats (8 week-old) purchased from BioLASCO Taiwan Co., Ltd were used. The rats were housed in an animal room with constant temperature of 21-24° C., where was kept on a 12-hours light and 12-hours dark cycle. The rats were housed and kept on free diet and water.
(§2) 3 days before the trials, motor functions of the rats were tested by the rotarod test. On the 1st, 3rd, 5th, 7th, 9th, 11th and 13th days, pentylenetetrazol (PTZ, 35 mg/kg) was IP injected to the rats to induce epilepsy rats of groups A1-A5. On the 21st day, after administration of PTZ, seizure intensity of the rats was measured.
(§3) Referring to TABLE 1, on the 7th, 8th, 9th, 10th, 11th, 12th and 13th days, clavulanic acid and/or valproic acid was IP injected to the epilepsy rats of groups A2-A5. Saline (1 mL/kg/day) was IP injected to the normal rats of group A0, as well as the epilepsy rats of group A1.
On the 14th day, the motor function of the rats of groups A0-A5 was tested by rotarod test. On the 15th, 16th and 17th days, the cognitive impairment on object recognition ability of the rats of groups A0-A5 was tested by object recognition test. On the 18th, 19th and 20th days, the cognitive impairment on memory of the rats of groups A0-A5 was tested by passive avoidance test. Moreover, on the 22nd day, BrdU (5′-bromo-2′-deoxyuridine) was IP injected to the rats of groups A0-A5 to label the proliferating cells. On the 23rd day, the rats of groups A0-A5 were sacrificed and the coronal brain sections were collected. The sections with hippocampal dentate gyrus were used for BrdU staining. The number of BrdU-positive cells in hippocampal dentate gyrus was calculated.
On the 22nd day, BrdU was IP injected to the rats to label the proliferating cells. On the 23rd day, the rats of groups A0-A5 were sacrificed and the coronal sections of the brain were collected. The sections with hippocampal dentate gyrus were used for BrdU staining.

[2] = system: epilepsy rats (PTZ induced); assay: Rotarod test of motor function (trial C); conditions: 14th day, 25 rpm for 3 minutes
Protocol: Wistar male rats (8 week-old) purchased from BioLASCO Taiwan Co., Ltd were used. The rats were housed in an animal room with constant temperature of 21-24° C., where was kept on a 12-hours light and 12-hours dark cycle. The rats were housed and kept on free diet and water. 3 days before the trials, motor functions of the rats were tested by the rotarod test. On the 1st, 3rd, 5th, 7th, 9th, 11th and 13th days, pentylenetetrazol (PTZ, 35 mg/kg) was IP injected to the rats to induce epilepsy rats of groups A1-A5. On the 21st day, after administration of PTZ, seizure intensity of the rats was measured. Referring to TABLE 1, on the 7th, 8th, 9th, 10th, 11th, 12th and 13th days, clavulanic acid and/or valproic acid was IP injected to the epilepsy rats of groups A2-A5. Saline (1 mL/kg/day) was IP injected to the normal rats of group A0, as well as the epilepsy rats of group A1. On the 14th day, the motor function of the rats of groups A0-A5 was tested by rotarod test. On the 15th, 16th and 17th days, the cognitive impairment on object recognition ability of the rats of groups A0-A5 was tested by object recognition test. On the 18th, 19th and 20th days, the cognitive impairment on memory of the rats of groups A0-A5 was tested by passive avoidance test. Moreover, on the 22nd day, BrdU (5′-bromo-2′-deoxyuridine) was IP injected to the rats of groups A0-A5 to label the proliferating cells. On the 23rd day, the rats of groups A0-A5 were sacrificed and the coronal brain sections were collected. The sections with hippocampal dentate gyrus were used for BrdU staining. The number of BrdU-positive cells in hippocampal dentate gyrus was calculated. Next, motor function of the rats of groups A0-A5 was tested by rotarod test. Specifically, in the training session, the normal rat that had not yet been induced as epilepsy rat by PTZ was used as the rat R under the test. […] 3 trials were performed with a cutoff of 5 minutes. On the 14th day, the rats of groups A0-A5 were used as the rats R under the test. […]

[3] = system: epilepsy rats (PTZ induced); assay: Seizure intensity by Racine score in PTZ-induced epilepsy rats (trial B); conditions: for seizure intensity (Racine score): 9th, 11th and 13th days
Protocol: Wistar male rats (8 week-old) purchased from BioLASCO Taiwan Co., Ltd were used. The rats were housed in an animal room with constant temperature of 21-24° C., where was kept on a 12-hours light and 12-hours dark cycle. The rats were housed and kept on free diet and water. 3 days before the trials, motor functions of the rats were tested by the rotarod test. On the 1st, 3rd, 5th, 7th, 9th, 11th and 13th days, pentylenetetrazol (PTZ, 35 mg/kg) was IP injected to the rats to induce epilepsy rats of groups A1-A5. On the 21st day, after administration of PTZ, seizure intensity of the rats was measured. Referring to TABLE 1, on the 7th, 8th, 9th, 10th, 11th, 12th and 13th days, clavulanic acid and/or valproic acid was IP injected to the epilepsy rats of groups A2-A5. Saline (1 mL/kg/day) was IP injected to the normal rats of group A0, as well as the epilepsy rats of group A1. On the 1st, 3rd, 5th, 7th, 9th, 11th, 13th and 21st days, the seizure intensity of the rats of groups A0-A5 was measured by Racine score. The seizure intensity was scored according to Racine's scale as follows: 0=normal, nonepileptic activity, 1=mouth and facial movements, hyperactivity, grooming, sniffing, scratching, wet dog shakes, 2=head nodding, staring, tremor, 3=forelimb clonus, forelimb extension, 4=rearing, salivating, tonic clonic activity and 5=falling, status epilepticus.

[4] = system: epilepsy rats (PTZ induced); assay: Passive avoidance test in shuttle box (trial E); conditions: after retention session of 24 hours, p<0.05 compared to group A0
Protocol: as §1, §2, §3
On the 14th day, the motor function of the rats of groups A0-A5 was tested by rotarod test. […] The number of BrdU-positive cells in hippocampal dentate gyrus was calculated. […]
After the retention session for 24 hours, the rat R under the test was placed in the light chamber C1, and the guillotine door D was opened, as shown in FIG. 8b. The latency to entrance into the dark chamber C2 was recorded. […]

[5] = system: epilepsy rats (PTZ induced); assay: Object recognition test (trial D); conditions: 17th day
Protocol: as §1, §2, §3
On the 14th day, the motor function of the rats of groups A0-A5 was tested by rotarod test. On the 15th, 16th and 17th days, the cognitive impairment on object recognition ability of the rats of groups A0-A5 was tested by object recognition test. On the 18th, 19th and 20th days, the cognitive impairment on memory of the rats of groups A0-A5 was tested by passive avoidance test. […] The number of BrdU-positive cells in hippocampal dentate gyrus was calculated. […]
On the 17th day, during the test session, the rat R under the test was placed in the open box, shown as FIG. 6a, and the time spent exploring the object O1 (TO1) and the total time spent exploring the objects O1, O2 & O3 (TO1+O2+O3) were recorded, respectively. The percentage of the exploration time spent on the object O1 was calculated as (TO1/TO1+O2+O3)*100%. […] The time spent exploring the novel object O4 (TO4) and the total time spent exploring the objects O2 & O3 and the novel object O4 (TO2+O3+O4) were respectively recorded, and the percentage of the exploration time spent on the novel object O4 was calculated as […].

[6] = group A4: valproic acid 50 mg/kg/day IP

SMILES	number of BrdU-positive cells in hippocampal dentate gyrus ([1]; group A2: clavulanic acid 1 mg/kg/day IP, no difference compared to group A0)	number of BrdU-positive cells in hippocampal dentate gyrus ([1]; group A3: clavulanic acid 10 mg/kg/day IP, no difference compared to group A0)	riding time on rotarod ([2]; group A2: clavulanic acid 1 mg/kg/day IP, no difference between group A0)	riding time on rotarod ([2]; group A3: clavulanic acid 10 mg/kg/day IP, p<0.05 compared to group A1)	seizure intensity (Racine score) ([3]; group A2: clavulanic acid 1 mg/kg/day IP days 7-13)	seizure intensity (Racine score) after drug holiday ([3]; group A3: clavulanic acid 10 mg/kg/day IP days 7-13, not treated days 14-20, 21st day, compared to group A1 (saline))	seizure intensity (Racine score) ([3]; group A3: clavulanic acid 10 mg/kg/day IP days 7-13)	latency to entrance into the dark chamber C2 ([4]; group A2: clavulanic acid 1 mg/kg/day IP)	percentage of time exploring novel object O4 versus object O1 ([5]; group A2: clavulanic acid 1 mg/kg/day IP, p<0.01)	percentage of time exploring novel object O4 versus object O1 ([5]; group A3: clavulanic acid 10 mg/kg/day IP, p<0.05)	number of BrdU-positive cells in hippocampal dentate gyrus ([1]; group A4: valproic acid 50 mg/kg/day IP, p<0.05 compared to A0)	riding time on rotarod ([2]; group A4: valproic acid 50 mg/kg/day IP, p<0.001 compared to group A0)	seizure intensity (Racine score) ([3]; group A4: valproic acid 50 mg/kg/day IP days 7-13)	latency to entrance into the dark chamber C2 [4, 6]	percentage of time exploring novel object O4 versus object O1 [5, 6]
O=C(O)[C@H]1/C(=C/CO)O[C@@H]2CC(=O)N21 [clavulanic acid]	can recover the number of BrdU-positive cells to normal	can recover the number of BrdU-positive cells to normal	significantly increase the riding time	significantly increase the riding time	3-4	still significantly lower	decreases	also decreases	can recognize the novel object O4	can recognize the novel object O4	–	–	–	–	–
CCCC(CCC)C(=O)O [valproic acid]	–	–	–	–	–	–	–	–	–	–	cannot improve the defect on neurogenesis	cannot improve the motor coordination and balance problems	did not decrease	cannot improve the cognitive impairment on memory	cannot improve the cognitive decline on recognition ability
